The conditions of series [1]: 101.33 kPa, Liquid, Vibrating tube method.
The nature of series [2]: refractive index (Na D-line) (dimensionless). The conditions noted are these: 101.33 kPa, Liquid, Standard Abbe refractometry.

Structures are written as SMILES. Numbers after ± are expanded uncertainties.

As a reminder, the mass density is the mass of a sample divided by its volume. The term refractive index denotes a measure of how strongly the sample bends light. As for `CCC(C)OC(C)=O` (configuration not stated) [1-methylpropyl ethanoate], in series [1] (293.15 K), the mass density is 871 ± 2 kg/m3. Also, the refractive index in series [2] (293.15 K) is on record as 1.3876 ± 0.0006.
Consider `CC(=O)O` [acetic acid], for which, in series [1] (298.15 K), the mass density was 1044.6 ± 2 kg/m3. For the same compound, the refractive index in series [2] (298.15 K) worked out at 1.3703 ± 0.0005.
Take `CCC(C)O` (configuration not stated) [butan-2-ol]: in series [1] (298.15 K), the mass density is given as 804 ± 2 kg/m3. For the same compound, in series [2] (298.15 K), the refractive index came to 1.3962 ± 0.0005.
With `O` [water], in series [2] (298.15 K), the refractive index is given as 1.332 ± 0.0005.

Source of the values: the NIST ThermoML archive (doi:10.1016/j.fluid.2016.10.027).
